Results from patent US4559323A, “A41030 Antibiotics” (Eli Lilly and Company, priority 1984, dated 1985).
Values after ≈ are worked out from the molar mass of the structure shown.

Columns and labels:
Streptococcus faecalis = assay: Agar-dilution MIC; assay type: cell-based; conditions: Table 7; Streptococcus faecalis X66
[1] = system: Haemophilus parainfluenzae; assay: Agar-dilution MIC; assay type: cell-based; conditions: Table 18, 24 hours
Viridans streptococcus = assay: Agar-dilution MIC; assay type: cell-based; conditions: Table 11
Pc. constellatus = assay: Agar-dilution MIC (anaerobes); assay type: cell-based, Peptococcus constellatus; conditions: Table 15; Pc. constellatus 1468
Experimental: (§1) The MIC values were determined by the agar-dilution method, and are recorded in Table 15, which follows.

Escherichia coli EC14 = assay: Disc-plate sensitivity procedure; assay type: cell-based
Bacteroides fragilis = assay: Agar-dilution MIC (anaerobes); assay type: cell-based
Excerpt: The agar-dilution procedure described by the International Collaborative study (ICS) group was used to determine the minimum inhibitory concentrations (MIC's).

[2] = system: Peptococcus asaccharolyticus; assay: Agar-dilution MIC (anaerobes); assay type: cell-based; conditions: Table 15
Experimental: as §1

Staphylococcus aureus = assay: Disc-plate sensitivity procedure; assay type: cell-based; conditions: Table 8
[3] = system: Streptococcus pyogenes C203; assay: Disc-plate sensitivity procedure; assay type: cell-based
[4] = system: Streptococcus pneumoniae Park I; assay: Disc-plate sensitivity procedure; assay type: cell-based
Neisseria sp. = assay: Agar-dilution MIC; assay type: cell-based; conditions: Table 10
Experimental: The test results are recorded in Table 10, which follows.

pseudorabies = conditions: in vitro at 20 mcg./ml.
[5] = mice, administered intraperitoneally
Escherichia coli = assay: Agar-dilution MIC; assay type: cell-based; conditions: Table 17; 24 hours; Escherichia coli EC14
[6] = system: Streptococcus sp. (Group D) 9960; assay: Disc-plate sensitivity procedure; assay type: cell-based
[7] = system: Streptococcus sp. Group B; assay: Agar-dilution MIC; assay type: cell-based; conditions: Table 18, 24 hours
Excerpt: The in vitro activity of antibiotic A41030 factors A and B against a number of representative aerobic, gram-positive bacteria, including Streptococcus sp. Group D, has been determined using a standard agar-dilution assay.

SMILES: NC1C(=O)NC2Cc3ccc(c(Cl)c3)Oc3cc4cc(c3O)Oc3ccc(cc3Cl)C(O)C3NC(=O)C(NC(=O)C4NC(=O)C(NC2=O)c2cc(O)cc(c2)Oc2cc1ccc2O)c1cc(Cl)c(O)c(c1)-c1c(O)cc(O)cc1C(C(=O)O)NC3=O (stereo not shown) [A41030 factor A]
- MIC (Streptococcus faecalis): < 0.5 µg/mL
- MIC ([1]; Haemophilus parainfluenzae 7901): 16 µg/mL (≈ 13 µM)
- MIC ([1]; Haemophilus parainfluenzae 9796): 16 µg/mL (≈ 13 µM)
- MIC (Viridans streptococcus; Viridans streptococcus SM-1134): 0.5 µg/mL (≈ 0.405 µM)
- MIC (Viridans streptococcus; Viridans streptococcus SSI-910): 0.25 µg/mL (≈ 0.203 µM)
- MIC (Viridans streptococcus; Viridans streptococcus SSII-895): 0.25 µg/mL (≈ 0.203 µM)
- MIC (Pc. constellatus): 0.5 µg/mL (≈ 0.405 µM)
- Zone diameter (Escherichia coli EC14; Table 8, 10 μg./disc): 0 mm
- Zone diameter (Escherichia coli EC14; Table 8, 100 μg./disc): 8.0 mm
- MIC (Bacteroides fragilis; Table 12, 24-hour, B. fragilis 2): 64 µg/mL (≈ 51.9 µM)
- MIC (Bacteroides fragilis; Table 12, 24-hour, B. fragilis 9): 64 µg/mL (≈ 51.9 µM)
- MIC (Bacteroides fragilis; Table 12, 24-hour, B. fragilis 103): 32 µg/mL (≈ 25.9 µM)
- MIC (Bacteroides fragilis; Table 12, 24-hour, B. fragilis 104): 32 µg/mL (≈ 25.9 µM)
- MIC (Bacteroides fragilis; Table 12, 24-hour, B. fragilis 106): 64 µg/mL (≈ 51.9 µM)
- MIC (Bacteroides fragilis; Table 12, 24-hour, B. fragilis 107): 32 µg/mL (≈ 25.9 µM)
- MIC (Bacteroides fragilis; Table 12, 24-hour, B. fragilis 108): 32 µg/mL (≈ 25.9 µM)
- MIC (Bacteroides fragilis; Table 12, 24-hour, B. fragilis 110): 64 µg/mL (≈ 51.9 µM)
- MIC (Bacteroides fragilis; Table 12, 24-hour, B. fragilis 111): 32 µg/mL (≈ 25.9 µM)
- MIC (Bacteroides fragilis; Table 12, 24-hour, B. fragilis 112): 64 µg/mL (≈ 51.9 µM)
- MIC (Bacteroides fragilis; Table 12, 24-hour, B. fragilis 113): 32 µg/mL (≈ 25.9 µM)
- MIC (Bacteroides fragilis; Table 12, 24-hour, B. fragilis 1451): 64 µg/mL (≈ 51.9 µM)
- MIC (Bacteroides fragilis; Table 12, 24-hour, B. fragilis 1470): 64 µg/mL (≈ 51.9 µM)
- MIC (Bacteroides fragilis; Table 12, 24-hour, B. fragilis 1877): 32 µg/mL (≈ 25.9 µM)
- MIC (Bacteroides fragilis; Table 12, 24-hour, B. fragilis 9032): 64 µg/mL (≈ 51.9 µM)
- MIC (Bacteroides fragilis; Table 14, Bacteroides fragilis 111): 128 µg/mL (≈ 104 µM)
- MIC (Bacteroides fragilis; Table 14, Bacteroides fragilis 1877): 32 µg/mL (≈ 25.9 µM)
- MIC (Bacteroides fragilis; Table 14, Bacteroides fragilis 1936B): 64 µg/mL (≈ 51.9 µM)
- MIC ([2]; Pc. asaccharolyticus 1302): ≤ 0.03 µg/mL
- MIC ([2]; Pc. asaccharolyticus 1344): 0.5 µg/mL (≈ 0.405 µM)
- Zone diameter (Staphylococcus aureus; S. aureus 3055 benzylpenicillin-susceptible, 10 μg./disc): 17.2 mm
- Zone diameter (Staphylococcus aureus; S. aureus 3055 benzylpenicillin-susceptible, 100 μg./disc): 20.8 mm
- Zone diameter (Staphylococcus aureus; S. aureus 3074 benzylpenicillin-resistant, 10 μg./disc): 16.7 mm
- Zone diameter (Staphylococcus aureus; S. aureus 3074 benzylpenicillin-resistant, 100 μg./disc): 19.8 mm
- Zone diameter (Staphylococcus aureus; S. aureus 3130 benzylpenicillin- and methicillin-resistant, 10 μg./disc): 17.4 mm
- Zone diameter (Staphylococcus aureus; S. aureus 3130 benzylpenicillin- and methicillin-resistant, 100 μg./disc): 21.4 mm
- Zone diameter ([3]; Table 8, 10 μg./disc): 12.0 mm
- Zone diameter ([3]; Table 8, 100 μg./disc): 15.0 mm
- Zone diameter ([4]; Table 8, 10 μg./disc): 15.0 mm
- Zone diameter ([4]; Table 8, 100 μg./disc): 17.0 mm
- MIC (Neisseria sp.; strain L. Nance): 4.0 µg/mL (≈ 3.24 µM)
- MIC (Neisseria sp.; strain Mitchell): 4.0 µg/mL (≈ 3.24 µM)
- MIC (Neisseria sp.; strain Sanders): 1.0 µg/mL (≈ 0.811 µM)
- MIC (Neisseria sp.; strain Schultz): 8.0 µg/mL (≈ 6.49 µM)
- MIC (Neisseria sp.; strain Woods): 4.0 µg/mL (≈ 3.24 µM)
- activity against pseudorabies (pseudorabies): shown activity
- LD50 [5]: > 300 mg/kg
- acute toxicity [5]: > 300 mg/kg
- MIC (Escherichia coli): 128 µg/mL (≈ 104 µM)
- Zone diameter ([6]; Table 8, 10 μg./disc): 16.4 mm
- Zone diameter ([6]; Table 8, 100 μg./disc): 20.5 mm
- MIC ([7]; Streptococcus sp. Group B 5): 1 µg/mL (≈ 0.811 µM)
- MIC ([7]; Streptococcus sp. Group B 14): 0.06 µg/mL (≈ 0.0486 µM)
